Consider 7 compounds from US20230116114A1, “COMPOUNDS AND COMPOSITIONS FOR TREATING CNS DISORDERS” (Blue Oak Pharmaceuticals, Inc., priority 2020, published 2023).

Where a name gives a salt, the structure may show the parent alone. Some results are limits rather than exact numbers.

This test has as its system mice. The experiment in a line: SmartCube in vivo neuropharmacological behavioral assay. The following applies: for minimal effective dose: Mus musculus, ip, 0.25 h, dose having 50% or more total activity in SmartCube, i.p., read-out: MED (minimal effective dose); for AD: antidepressant (percent probability) / AG: analgesic (percent probability) / AP: antipsychotic (percent probability) / AX: anxiolytic (percent probability) / CE: cognitive enhancer (percent probability) / HA: hallucinogenic (percent probability) / MS: mood stabilizer (percent probability) / PS (percent probability) / SD: sedative hypnotic (percent probability) / SE: side effects (percent probability) / UN: uncharacterized CNS activity (percent probability) / XG: anxiogenic (percent probability): SmartCube, i.p. 15 min before test, result at the MED. Summed up:
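Mice dosed i.p. in NMP (Pharmasolve) 15 min before automated video behavioral testing at several doses (e.g., 0.3-30 mpk). Signatures compared to reference drug classes giving per-class probabilities (0-100); MED is the lowest dose with ≥50% total activity.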

On to `CC(C)N1C2CCCC1c1ccccc12` [Compound 2, 12-(Propan-2-yl)-12-azatricyclo[6.3.1.0^2,7]dodeca-2,4,6-triene], for which the minimal effective dose fell in the range of 1 to 10 mg/kg, the “AD: antidepressant (percent probability)” value is reported as “++ (5% ≤ X < 25%)”, the “AG: analgesic (percent probability)” value is “++ (5% ≤ X < 25%)” and the “AP: antipsychotic (percent probability)” value is on record as “+ (LOQ ≤ X < 5%)”. Also, the “AX: anxiolytic (percent probability)” value is “+ (LOQ ≤ X < 5%)”, the “CE: cognitive enhancer (percent probability)” value is recorded as “+ (LOQ ≤ X < 5%)”, the “HA: hallucinogenic (percent probability)” value is listed as “+ (LOQ ≤ X < 5%)” and the “MS: mood stabilizer (percent probability)” value (“MS … (percent probability)” below) is given as “+ (LOQ ≤ X < 5%)”. The “PS (percent probability)” value is “+ (LOQ ≤ X < 5%)”, the “SD: sedative hypnotic (percent probability)” value (“SD … (percent probability)” below) is “+ (LOQ ≤ X < 5%)”, the “SE: side effects (percent probability)” value is “+ (LOQ ≤ X < 5%)” and the “UN: uncharacterized CNS activity (percent probability)” value (“UN … (percent probability)” below) is recorded as “+++ (25% ≤ X < 50%)”. For the same compound, the “XG: anxiogenic (percent probability)” value is “+ (LOQ ≤ X < 5%)”.
For the compound `c1ccc2c(c1)CC(N1C3CCCC1c1ccccc13)C2` [Compound 11, 12-(2,3-Dihydro-1H-inden-2-yl)-12-azatricyclo[6.3.1.0^2,7]dodeca-2,4,6-triene hydrochloride], the minimal effective dose was in the range of 10 to 30 mg/kg, the “AD: antidepressant (percent probability)” value is reported as “+ (LOQ ≤ X < 5%)”, the “AG: analgesic (percent probability)” value is given as “++ (5% ≤ X < 25%)” and the “AP: antipsychotic (percent probability)” value was “+ (LOQ ≤ X < 5%)”. Further, the “AX: anxiolytic (percent probability)” value is “++ (5% ≤ X < 25%)”, the “CE: cognitive enhancer (percent probability)” value is “++ (5% ≤ X < 25%)”, the “HA: hallucinogenic (percent probability)” value is listed as “+ (LOQ ≤ X < 5%)” and the “MS … (percent probability)” value was “+ (LOQ ≤ X < 5%)”. The “PS (percent probability)” value is recorded as “+ (LOQ ≤ X < 5%)”, the “SD … (percent probability)” value was “+ (LOQ ≤ X < 5%)”, the “SE: side effects (percent probability)” value was “+ (LOQ ≤ X < 5%)” and the “UN … (percent probability)” value is “+++ (25% ≤ X < 50%)”. In addition, the “XG: anxiogenic (percent probability)” value is “+ (LOQ ≤ X < 5%)”.
As for `CC(C)N1C2CCC(F)C1c1ccccc12` (stereo not shown) [Compound 35, 9-Fluoro-12-(propan-2-yl)-12-azatricyclo[6.3.1.0^2,7]dodeca-2,4,6-triene hydrochloride], the minimal effective dose was above 30 mg/kg, the “AD: antidepressant (percent probability)” value was “+ (LOQ ≤ X < 5%)”, the “AG: analgesic (percent probability)” value is recorded as “++ (5% ≤ X < 25%)” and the “AP: antipsychotic (percent probability)” value is reported as “+ (LOQ ≤ X < 5%)”. Besides, the “AX: anxiolytic (percent probability)” value is given as “++ (5% ≤ X < 25%)”, the “CE: cognitive enhancer (percent probability)” value is given as “+ (LOQ ≤ X < 5%)”, the “HA: hallucinogenic (percent probability)” value is given as “+ (LOQ ≤ X < 5%)” and the “MS … (percent probability)” value is listed as “+ (LOQ ≤ X < 5%)”. Besides, the “PS (percent probability)” value was “+ (LOQ ≤ X < 5%)”, the “SD … (percent probability)” value is reported as “+ (LOQ ≤ X < 5%)”, the “SE: side effects (percent probability)” value was “+ (LOQ ≤ X < 5%)” and the “UN … (percent probability)” value is recorded as “+ (LOQ ≤ X < 5%)”. Also, the “XG: anxiogenic (percent probability)” value was “+ (LOQ ≤ X < 5%)”.
For the compound `CCCC(C)N1C2CCCC1c1ccccc12` (stereo not shown) [Compound 16, 12-(Pentan-2-yl)-12-azatricyclo[6.3.1.0^20.7]dodeca-2,4,6-triene hydrochloride], the minimal effective dose lay in the range of 10 to 30 mg/kg, the “AD: antidepressant (percent probability)” value was “+++ (25% ≤ X < 50%)”, the “AG: analgesic (percent probability)” value is “++ (5% ≤ X < 25%)” and the “AP: antipsychotic (percent probability)” value was “+ (LOQ ≤ X < 5%)”. The “AX: anxiolytic (percent probability)” value is recorded as “++ (5% ≤ X < 25%)”, the “CE: cognitive enhancer (percent probability)” value is reported as “+ (LOQ ≤ X < 5%)”, the “HA: hallucinogenic (percent probability)” value is recorded as “++ (5% ≤ X < 25%)” and the “MS … (percent probability)” value is on record as “+ (LOQ ≤ X < 5%)”. The “PS (percent probability)” value is on record as “+ (LOQ ≤ X < 5%)”, the “SD … (percent probability)” value is listed as “+ (LOQ ≤ X < 5%)”, the “SE: side effects (percent probability)” value is listed as “+ (LOQ ≤ X < 5%)” and the “UN … (percent probability)” value is on record as “++ (5% ≤ X < 25%)”. Also, the “XG: anxiogenic (percent probability)” value was “+ (LOQ ≤ X < 5%)”.
With `CC(C)CN1C2CCCC1c1ccccc12` [Compound 8, 12-(2-Methylpropyl)-12-azatricyclo[6.3.1.0^2,7]dodeca-2,4,6-triene], the minimal effective dose lay within 10 to 30 mg/kg, the “AD: antidepressant (percent probability)” value was “++++ (50% ≤ X < 100%)”, the “AG: analgesic (percent probability)” value is reported as “+ (LOQ ≤ X < 5%)” and the “AP: antipsychotic (percent probability)” value was “+ (LOQ ≤ X < 5%)”. Moreover, the “AX: anxiolytic (percent probability)” value is given as “++ (5% ≤ X < 25%)”, the “CE: cognitive enhancer (percent probability)” value is listed as “+ (LOQ ≤ X < 5%)”, the “HA: hallucinogenic (percent probability)” value is listed as “+ (LOQ ≤ X < 5%)” and the “MS … (percent probability)” value is given as “+ (LOQ ≤ X < 5%)”. Moreover, the “PS (percent probability)” value is recorded as “++ (5% ≤ X < 25%)”, the “SD … (percent probability)” value was “+ (LOQ ≤ X < 5%)”, the “SE: side effects (percent probability)” value was “+ (LOQ ≤ X < 5%)” and the “UN … (percent probability)” value is “+ (LOQ ≤ X < 5%)”. For the same compound, the “XG: anxiogenic (percent probability)” value is on record as “+ (LOQ ≤ X < 5%)”.
Consider `c1ccc2c(c1)C1CCCC2N1` [Compound 1, 12-Azatricyclo[6.3.1.0^2,7]dodeca-2,4,6-triene], for which the minimal effective dose lay in the range of 10 to 30 mg/kg, the “AD: antidepressant (percent probability)” value is listed as “++ (5% ≤ X < 25%)”, the “AG: analgesic (percent probability)” value was “++ (5% ≤ X < 25%)” and the “AP: antipsychotic (percent probability)” value is given as “+ (LOQ ≤ X < 5%)”. The “AX: anxiolytic (percent probability)” value is recorded as “++ (5% ≤ X < 25%)”, the “CE: cognitive enhancer (percent probability)” value was “+++ (25% ≤ X < 50%)”, the “HA: hallucinogenic (percent probability)” value is “+ (LOQ ≤ X < 5%)” and the “MS … (percent probability)” value is recorded as “+ (LOQ ≤ X < 5%)”. Further, the “PS (percent probability)” value is “+ (LOQ ≤ X < 5%)”, the “SD … (percent probability)” value is on record as “+ (LOQ ≤ X < 5%)”, the “SE: side effects (percent probability)” value is on record as “++ (5% ≤ X < 25%)” and the “UN … (percent probability)” value was “+ (LOQ ≤ X < 5%)”. Besides, the “XG: anxiogenic (percent probability)” value is given as “+ (LOQ ≤ X < 5%)”.
For the compound `C[C@H]1CC[C@@H]2N[C@H]1c1ccccc12` (stereo in doubt) [Compound 32, 9-Methyl-12-azatricyclo[6.3.1.0^2,7]dodeca-2,4,6-triene hydrochloride], the minimal effective dose fell in the range of 10 to 30 mg/kg, the “AD: antidepressant (percent probability)” value was “+ (LOQ ≤ X < 5%)”, the “AG: analgesic (percent probability)” value was “+ (LOQ ≤ X < 5%)” and the “AP: antipsychotic (percent probability)” value is listed as “+ (LOQ ≤ X < 5%)”. Further, the “AX: anxiolytic (percent probability)” value was “+ (LOQ ≤ X < 5%)”, the “CE: cognitive enhancer (percent probability)” value was “+ (LOQ ≤ X < 5%)”, the “HA: hallucinogenic (percent probability)” value was “++++ (50% ≤ X < 100%)” and the “MS … (percent probability)” value was “+ (LOQ ≤ X < 5%)”. For the same compound, the “PS (percent probability)” value is given as “++ (5% ≤ X < 25%)”, the “SD … (percent probability)” value was “+ (LOQ ≤ X < 5%)”, the “SE: side effects (percent probability)” value is recorded as “+ (LOQ ≤ X < 5%)” and the “UN … (percent probability)” value is “+ (LOQ ≤ X < 5%)”. For the same compound, the “XG: anxiogenic (percent probability)” value was “+ (LOQ ≤ X < 5%)”.

What is called minimal effective dose is the smallest amount tested that counted as effective.
